Measurements reported in ChEMBL document CHEMBL1129259 (J Med Chem, 1996).

Molecular target: Melatonin receptor (Gallus gallus, UniProt P49288+P51050+P49285)
Assay: In vitro binding affinity against melatonin receptor using 2-[125I]iodomelatonin (0.05 nM) and chicken brain membranes
Set-up: species or system Membrane

Ki [nM]	Compound
168	COc1cc2ccccc2c2c1CC(NC(C)=O)CC2 (stereo not drawn)
28.7	COc1ccc2cccc3c2c1CC(NC(C)=O)C3 (stereo not drawn)
22.8	COc1ccc2ccc(O)c3c2c1CC(NC(C)=O)C3 (stereo not drawn)
273	COc1c2c(cc3ccccc13)CCC(NC(C)=O)C2 (stereo not drawn)

More lines, now with the values behind:

Compound	Ki [nM]
COc1ccc2ccc(OC)c3c2c1CC(NC(C)=O)C3	0.7
CC(=O)NCCc1c[nH]c2ccc(O)cc12 [ACETYLSEROTONIN]	1640
CC(=O)NC1Cc2cccc3cccc(c23)C1	195
CCC(=O)NC1Cc2cccc3ccc(OC)c(c23)C1 (stereo not drawn)	6
